Source: US9365523B2, “Imidazolyl amide compounds and uses related thereto” (priority 2011, dated 2016)

system: MeV-Alaska; assay: Antiviral activity of compound analogs against MeV-Alaska (tables 1-5); type: cell-based, measles virus; details: Measles morbillivirus; Table 5

Structure (SMILES)	EC50 [µM]
Cc1ccc(NC(=O)C(C)(C)Sc2nc3ccccc3n2-c2ccccc2)c(Cl)c1 [Compound 170]	> 75
Cc1ccc(N(Cc2ccc(F)cc2)C(=O)CSc2nc(-c3ccccc3)c(-c3ccccc3)n2Cc2ccc(F)cc2)c(Cl)c1 [Compound 143]	> 75
COc1ccc(-n2ccnc2SC(C)C(=O)Nc2ncc(Cl)cc2Cl)cc1 (stereo not shown) [Compound 132]	> 75
COc1ccc(-n2c(CCC(=O)Nc3ncc(C)cc3Cl)nc3ccccc32)cc1 [Compound 135]	> 75
COc1ccc(-n2c([S+]([O-])CC(=O)Nc3ccc(C)cc3Cl)nc3ccccc32)cc1 (stereo not shown) [Compound 165]	4.2
Cc1ccc(NC(=O)CSc2nc(-c3ccccc3)c(-c3ccccc3)n2Cc2ccc(F)cc2)c(Cl)c1 [Compound 168]	> 75
Cc1ccc(NC(=O)c2ccccc2-c2nc3ccccc3n2-c2ccccc2)c(Cl)c1 [Compound 163]	> 50
COc1ccc(-n2c(SC(C)C(=O)Nc3ccc(C)cc3Cl)nc3cccnc32)cc1 (stereo not shown) [Compound 154]	1.6
Cc1ccc(NC(=O)C(C)Sc2nc3ccccc3o2)c(Cl)c1 (stereo not shown) [Compound 151]	> 75
COc1ccc(-n2c(S(=O)(=O)CC(=O)Nc3ccc(C)cc3Cl)nc3ccccc32)cc1 [Compound 141]	> 75
COc1ccc(Cn2c(NC(C)C(=O)Nc3ccc(C)cc3Cl)nc3ccccc32)cc1 (stereo not shown) [Compound 127]	> 75
Cc1ccc(N(Cc2ccc(F)cc2)C(=O)C(C)Sc2nc(-c3ccccc3)c(-c3ccccc3)n2Cc2ccc(F)cc2)c(Cl)c1 (stereo not shown) [Compound 167]	> 75
Cc1ccc(NC(=O)C(C)Sc2nc3cccnc3n2-c2ccccc2)c(Cl)c1 (stereo not shown) [Compound 146]	1.2
Cc1ccc(NC(=O)C(C)Sc2nc(-c3ccccc3)c(-c3ccccc3)[nH]2)c(Cl)c1 (stereo not shown) [Compound 152]	> 75
Cc1cccc(-n2c(SCCNc3ccccc3)nc3ccccc32)c1 [Compound 172]	> 75
COc1ccc(Cn2c(CC(C)NC(=O)c3ccc(Cl)cc3Cl)nc3ccccc32)cc1 (stereo not shown) [Compound 136]	> 75
COc1ccc(-n2c(SCC(=O)Nc3ccc(C)cc3Cl)nc3ccccc32)cc1 [Compound 140]	1.05
CCOC(=O)c1ccc2[nH]c(SC(C)C(=O)Nc3ncc(Cl)cc3Cl)nc2c1 (stereo not shown) [Compound 158]	> 75
COc1ccc(-n2c(S(=O)(=O)C(C)C(=O)Nc3ccc(C)cc3Cl)nc3ccccc32)cc1 (stereo not shown) [Compound 150]	> 150
COc1ccc(Cn2c(CCC(=O)Nc3ccc(Cl)cc3Cl)nc3ccccc32)cc1 [Compound 160]	> 75
COc1ccc(-n2c(SCC(=O)Nc3ncc(Cl)cc3Cl)nc3ccccc32)cc1 [Compound 155]	0.44
Cc1ccc(NC(=O)/C=C/c2nc3ccccc3n2-c2ccccc2)c(Cl)c1 [Compound 162]	> 75
COc1ccc(-n2c(/C=C/C(=O)Nc3ccc(C)cc3Cl)nc3ccccc32)cc1 [Compound 161]	> 75
Cc1ccc(NC(=O)C(C)Sc2cc3ccccc3n2-c2ccccc2)c(Cl)c1 (stereo not shown) [Compound 173]	> 9.3
Cc1ccc(NC(=O)C(C)Sc2nc3ccccc3n2Cc2ccccc2)c(Cl)c1 (stereo not shown) [Compound 148]	> 75
Cc1ccc(NC(=O)C(C)(C)[S+]([O-])c2nc3ccccc3n2-c2ccccc2)c(Cl)c1 (stereo not shown) [Compound 171]	> 75
Cc1ccc(NC(=O)CSc2nc3cc(C)c(C)cc3n2Cc2ccc(F)cc2)c(Cl)c1 [Compound 144]	> 75

same assay, conditions: Table 1

Structure (SMILES)	EC50 [µM]
COc1ccc(-n2c(SC(C)C(=O)Nc3ncc(C)s3)nc3ccccc32)cc1 (stereo not shown) [Compound 53]	> 150
COc1ccc(-n2c(SC(C)C(=O)Nc3nnc(C)c(C)n3)nc3ccccc32)cc1 (stereo not shown) [Compound 6]	16.6
COc1ccc(-n2c(SC(C)C(=O)Nc3nc(C)c(C)s3)nc3ccccc32)cc1 (stereo not shown) [Compound 54]	2.5
COc1ccc(-n2c(SC(C)C(=O)Nc3ccncc3)nc3ccccc32)cc1 (stereo not shown) [Compound 42]	> 75
COc1ccc(-n2c(SC(C)C(=O)Nc3ccccc3C)nc3ccccc32)cc1 (stereo not shown) [Compound 15]	1.14
COc1ccc(-n2c(SC(C)C(=O)Nc3ncc(C)cc3Cl)nc3ccccc32)cc1 (stereo not shown) [Compound 5]	0.04
COc1ccc(-n2c(SC(C)C(=O)Nc3nc(Cl)ccc3Cl)nc3ccccc32)cc1 (stereo not shown) [Compound 4]	0.3
COc1ccc(-n2c(SC(C)C(=O)Nc3ncc(Br)cn3)nc3ccccc32)cc1 (stereo not shown) [Compound 8]	4.1
COc1ccc(-n2c(SC(C)C(=O)Nc3ccc(Cl)c(C)c3)nc3ccccc32)cc1 (stereo not shown) [Compound 40]	6.7
COc1ccc(-n2c(SC(C)C(=O)Nc3ccc(C)cc3F)nc3ccccc32)cc1 (stereo not shown) [Compound 31]	0.2
COc1ccc(-n2c(SC(C)C(=O)Nc3ccc(F)cc3)nc3ccccc32)cc1 (stereo not shown) [Compound 47]	> 10
COc1ccc(-n2c(SC(C)C(=O)Nc3cc(OC)cc(OC)c3)nc3ccccc32)cc1 (stereo not shown) [Compound 13]	> 75
COc1ccc(-n2c(SC(C)C(=O)Nc3cccc([N+](=O)[O-])c3)nc3ccccc32)cc1 (stereo not shown) [Compound 33]	4.6
COc1ccc(-n2c(SC(C)C(=O)Nc3nc(Cl)cc(Cl)n3)nc3ccccc32)cc1 (stereo not shown) [Compound 44]	> 75
COc1ccc(-n2c(SC(C)C(=O)Nc3cccc(C)c3)nc3ccccc32)cc1 (stereo not shown) [Compound 10]	0.3
COc1ccc(-n2c(SC(C)C(=O)Nc3ncc(Cl)cc3Cl)nc3ccccc32)cc1 (stereo not shown) [Compound 1]	0.3
COc1ccc(-n2c(SC(C)C(=O)Nc3ccc(NC(C)=O)c(C)c3)nc3ccccc32)cc1 (stereo not shown) [Compound 17]	> 9.3
COc1ccc(-n2c(SC(C)C(=O)Nc3ccccc3Cl)nc3ccccc32)cc1 (stereo not shown) [Compound 50]	0.14
COc1ccc(-n2c(SC(C)C(=O)Nc3ccccc3)nc3ccccc32)cc1 (stereo not shown) [Compound 25]	0.9
COc1ccc(-n2c(SC(C)C(=O)Nc3cccc(Cl)c3)nc3ccccc32)cc1 (stereo not shown) [Compound 14]	0.5
COc1ccc(-n2c(SC(C)C(=O)Nc3ccc(C)c(Cl)c3)nc3ccccc32)cc1 (stereo not shown) [Compound 21]	0.4
COc1ccc(-n2c(SC(C)C(=O)Nc3ncccn3)nc3ccccc32)cc1 (stereo not shown) [Compound 29]	2
COc1ccc(-n2c(SC(C)C(=O)Nc3nc(Cl)cc(OC)n3)nc3ccccc32)cc1 (stereo not shown) [Compound 27]	> 75
COc1ccc(-n2c(SC(C)C(=O)Nc3nc(C)cc(Cl)n3)nc3ccccc32)cc1 (stereo not shown) [Compound 7]	> 150

same assay, conditions: Table 2

Structure (SMILES)	EC50 [µM]
CNCCc1ccc(-n2c(SC(C)C(=O)Nc3ccc(C)cc3Cl)nc3ccccc32)cc1 (stereo not shown) [Compound 66]	8.7
Cc1ccc(NC(=O)C(C)Sc2nc3ccccc3n2-c2ccc(OCCO)cc2)c(Cl)c1 (stereo not shown) [Compound 58]	4.6
Cc1ccc(NC(=O)C(C)Sc2nc3ccccc3n2C2CCCCC2)c(Cl)c1 (stereo not shown) [Compound 88]	0.29
Cc1ccc(NC(=O)C(C)Sc2nc3ccccc3n2-c2cccc(CN3CCOCC3)c2)c(Cl)c1 (stereo not shown) [Compound 83]	0.27
Cc1ccc(NC(=O)C(C)Sc2nc3ccccc3n2-c2ccc(N(C)C)cc2)c(Cl)c1 (stereo not shown) [Compound 77]	0.29
Cc1ccc(NC(=O)C(C)Sc2nc3ccccc3n2-c2ccc(NCCN(C)C)cc2)c(Cl)c1 (stereo not shown) [Compound 59]	4.2
Cc1ccc(NC(=O)C(C)Sc2nc3ccccc3n2C2CCN(C(=O)OC(C)(C)C)CC2)c(Cl)c1 (stereo not shown) [Compound 93]	0.6
Cc1ccc(NC(=O)C(C)Sc2nc3ccccc3n2-c2cccc(C(=O)O)c2)c(Cl)c1 (stereo not shown) [Compound 82]	> 75
Cc1ccc(NC(=O)C(C)Sc2nc3ccccc3n2C(=O)c2ccccc2)c(Cl)c1 (stereo not shown) [Compound 91]	> 9.3
Cc1ccc(NC(=O)C(C)Sc2nc3ccccc3n2S(=O)(=O)C2CCCCC2)c(Cl)c1 (stereo not shown) [Compound 89]	0.61
COC(=O)c1ccc(-n2c(SC(C)C(=O)Nc3ccc(C)cc3Cl)nc3ccccc32)cc1 (stereo not shown) [Compound 99]	1.1
COc1ccc(Cn2c(SC(C)C(=O)Nc3ccc(C)cc3Cl)nc3ccccc32)cc1 (stereo not shown) [Compound 85]	0.4
COc1cccc(-n2c(SC(C)C(=O)Nc3ccc(C)cc3Cl)nc3ccccc32)c1 (stereo not shown) [Compound 71]	0.6
Cc1ccc(NC(=O)C(C)Sc2nc3ccccc3n2-c2ccccc2CN2CCOCC2)c(Cl)c1 (stereo not shown) [Compound 79]	0.3
Cc1ccc(NC(=O)C(C)Sc2nc3ccccc3n2-c2ccc(C(=O)O)cc2)c(Cl)c1 (stereo not shown) [Compound 97]	> 75
CCOc1ccc(-n2c(SC(C)C(=O)Nc3ccc(C)cc3Cl)nc3ccccc32)cc1 (stereo not shown) [Compound 73]	0.05
CC(=O)NCCOc1ccc(-n2c(SC(C)C(=O)Nc3ccc(C)cc3Cl)nc3ccccc32)cc1 (stereo not shown) [Compound 61]	> 10
Cc1ccc(NC(=O)C(C)Sc2nc3ccccc3n2-c2cccc(CN3CCN(C)CC3)c2)c(Cl)c1 (stereo not shown) [Compound 65]	1.3

same assay, conditions: Table 3

Structure (SMILES)	EC50 [µM]
COc1cccc(-n2c(SC(C)C(=O)Nc3ncc(C)cc3Cl)nc3ccccc32)c1 (stereo not shown) [Compound 108]	0.4
CCOc1ccc(-n2c(SC(C)C(=O)Nc3ncc(Cl)cc3Cl)nc3ccccc32)cc1 (stereo not shown) [Compound 102]	0.2
CC(Sc1nc2ccccc2n1-c1ccc(O)cc1)C(=O)Nc1ncc(Cl)cc1Cl (stereo not shown) [Compound 103]	7.7
CC(Sc1nc2ccccc2n1-c1ccc(F)cc1)C(=O)Nc1ncc(Cl)cc1Cl (stereo not shown) [Compound 101]	0.3
Cc1nnc(NC(=O)C(C)Sc2nc3ccccc3n2-c2ccc(F)cc2)nc1C (stereo not shown) [Compound 106]	23
Cc1cnc(NC(=O)C(C)Sc2nc3ccccc3n2-c2ccccc2)c(Cl)c1 (stereo not shown) [Compound 109]	0.13
COc1ccc(Cn2c(SC(C)C(=O)Nc3ccc(Cl)cc3Cl)nc3ccccc32)cc1 (stereo not shown) [Compound 117]	1.7
Cc1cccc(-n2c(SC(C)C(=O)Nc3ncc(C)cc3Cl)nc3ccccc32)c1 (stereo not shown) [Compound 119]	0.09
CC(Sc1nc2ccccc2n1C)C(=O)Nc1ncc(Cl)cc1Cl (stereo not shown) [Compound 113]	> 10

same assay, conditions: in our assays

Structure (SMILES)	MeV inhibitory activity
O=C(CSc1nnc(Br)n1-c1ccc(C2CC2)c2ccccc12)Nc1ccc(C(=O)O)cc1Cl [RDEA-806, 4-(2-((5-bromo-4-(4-cyclopropylnaphthalen-1-yl)-4H-1,2,4-triazol-3-yl)thio)acetamido)-3-chlorobenzoic acid, reference compound]	lacks MeV inhibitory activity
